# Experimental data published in ChEMBL document CHEMBL1201862, “PubChem BioAssay data set” (2004).
#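 48-hour exposure; five concentrations; linearly interpolated endpoints. Here, GI50 denotes the concentration required for 50% inhibition of growth.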 The source made the active and inactive calls. Cut-off read from the data, not from the text of the source: active = GI50 up to about 1.1 µM and inactive = higher.
# Columns and labels:
# Assay in all cases: growth of human tumour cells (NCI), 48 h
# M14 = test system: M14
# SN12C = test system: SN12C
# RPMI-8226 = test system: RPMI-8226
# MDA-N = test system: MDA-N
# PC-3 = test system: PC-3
# OVCAR-5 = test system: OVCAR-5
# SK-OV-3 = test system: SK-OV-3
# MOLT-4 = test system: MOLT-4
# UO-31 = test system: UO-31
# OVCAR-8 = test system: OVCAR-8
# NCI-H460 = test system: NCI-H460
# SNB-19 = test system: SNB-19
# TK-10 = test system: TK-10
# NCI-H23 = test system: NCI-H23
# HT-29 = test system: HT-29
# SF-295 = test system: SF-295
# MDA-MB-435 = test system: MDA-MB-435
# EKVX = test system: EKVX
# CAKI-1 = test system: CAKI-1
# T47D = test system: T47D
# A549 = test system: A549
# NCI/ADR-RES = test system: NCI/ADR-RES
# IGROV-1 = test system: IGROV-1
# SW-620 = test system: SW-620
# SK-MEL-5 = test system: SK-MEL-5
# SK-MEL-2 = test system: SK-MEL-2
# 786-0 = test system: 786-0
# HCT-116 = test system: HCT-116
# LOX IMVI = test system: LOX IMVI
# Malme-3M = test system: Malme-3M
# SF-539 = test system: SF-539
# MDA-MB-231 = test system: MDA-MB-231
# ACHN = test system: ACHN
# A498 = test system: A498
# HOP-92 = test system: HOP-92
# SF-268 = test system: SF-268
# HCT-15 = test system: HCT-15
# SK-MEL-28 = test system: SK-MEL-28
# U-251 = test system: U-251
# HCC 2998 = test system: HCC 2998
# OVCAR-3 = test system: OVCAR-3
# COLO 205 = test system: COLO 205
# NCI-H226 = test system: NCI-H226
# UACC-257 = test system: UACC-257
# KM12 = test system: KM12
# MCF7 = test system: MCF7
# DU-145 = test system: DU-145
# K562 = test system: K562
# UACC-62 = test system: UACC-62
# NCI-H522 = test system: NCI-H522
# CCRF-CEM = test system: CCRF-CEM
# OVCAR-4 = test system: OVCAR-4
# HOP-62 = test system: HOP-62
# HL-60 = test system: HL-60
# RXF 393 = test system: RXF 393
# Hs-578T = test system: Hs-578T
compound,measurement,setting,value
COc1ccc(C2OC(c3ccncc3)=NN2C)cc1F (stereo unspecified),GI50,M14,> 100 µM (inactive)
same,GI50,SN12C,> 100 µM (inactive)
same,GI50,RPMI-8226,> 100 µM (inactive)
same,GI50,MDA-N,> 100 µM (inactive)
same,GI50,PC-3,> 100 µM (inactive)
same,GI50,OVCAR-5,> 100 µM (inactive)
same,GI50,SK-OV-3,> 100 µM (inactive)
same,GI50,MOLT-4,41.9 µM (inactive)
same,GI50,UO-31,> 100 µM (inactive)
same,GI50,OVCAR-8,> 100 µM (inactive)
same,GI50,NCI-H460,> 100 µM (inactive)
same,GI50,SNB-19,> 100 µM (inactive)
same,GI50,TK-10,> 100 µM (inactive)
same,GI50,NCI-H23,> 100 µM (inactive)
same,GI50,HT-29,> 100 µM (inactive)
same,GI50,SF-295,> 100 µM (inactive)
same,GI50,MDA-MB-435,> 100 µM (inactive)
same,GI50,EKVX,> 100 µM (inactive)
same,GI50,CAKI-1,51.4 µM (inactive)
same,GI50,T47D,> 100 µM (inactive)
same,GI50,A549,> 100 µM (inactive)
same,GI50,NCI/ADR-RES,> 100 µM (inactive)
same,GI50,IGROV-1,> 100 µM (inactive)
same,GI50,SW-620,> 100 µM (inactive)
same,GI50,SK-MEL-5,> 100 µM (inactive)
same,GI50,SK-MEL-2,> 100 µM (inactive)
same,GI50,786-0,> 100 µM (inactive)
same,GI50,HCT-116,> 100 µM (inactive)
same,GI50,LOX IMVI,> 100 µM (inactive)
same,GI50,Malme-3M,> 100 µM (inactive)
same,GI50,SF-539,> 100 µM (inactive)
same,GI50,MDA-MB-231,> 100 µM (inactive)
same,GI50,ACHN,> 100 µM (inactive)
same,GI50,A498,> 100 µM (inactive)
same,GI50,HOP-92,> 100 µM (inactive)
same,GI50,SF-268,> 100 µM (inactive)
same,GI50,HCT-15,> 100 µM
same,GI50,SK-MEL-28,> 100 µM (inactive)
same,GI50,U-251,> 100 µM (inactive)
same,GI50,HCC 2998,> 100 µM (inactive)
same,GI50,OVCAR-3,> 100 µM (inactive)
same,GI50,COLO 205,> 100 µM (inactive)
same,GI50,NCI-H226,> 100 µM (inactive)
same,GI50,UACC-257,> 100 µM (inactive)
same,GI50,KM12,> 100 µM (inactive)
same,GI50,MCF7,> 100 µM (inactive)
same,GI50,DU-145,> 100 µM (inactive)
same,GI50,K562,> 100 µM (inactive)
same,GI50,UACC-62,> 100 µM (inactive)
same,GI50,NCI-H522,> 100 µM (inactive)
same,GI50,CCRF-CEM,> 100 µM (inactive)
same,GI50,OVCAR-4,> 100 µM (inactive)
same,GI50,HOP-62,> 100 µM (inactive)
same,GI50,HL-60,> 100 µM (inactive)
same,GI50,RXF 393,> 100 µM (inactive)
same,GI50,Hs-578T,> 100 µM (inactive)
